{
  "source": "patent US10376520B2",
  "about": "“Methods for the treatment of cardiovascular disorders” (Galapagos NV, priority 2015, dated 2019)",
  "type_in_all_cases": "in vivo, human",
  "key": {"RA patients [1]": {"system": "RA patients", "test": "Paraoxonase assay (PON1), Study 4", "details": "for PON1 level, 4 weeks CFB: 4 weeks change from baseline", "method": "(§1) Randomized double-blind, placebo-controlled add on study in subjects with active RA who have an inadequate response to MTX monotherapy, in combination with methotrexate, administered for 4 weeks in the treatment of subjects with active rheumatoid arthritis who have an inadequate response to methotrexate alone.\n(§2) Compound 1 (dosed as a [Compound 1:HCl:3H2O]) capsules administered orally in 30 mg, 75 mg, 150 mg, or 300 mg doses per day for 4 weeks.\nParaoxanases are involved, in particular PON1 have a role in preventing atherosclerosis.\nThe PON assay is performed according to published protocol by Mackness et al. (Mackness et al., 2003)."}, "[2]": {"system": "Japanese and Caucasian healthy subjects", "test": "Total cholesterol determination, Study 3 (healthy volunteers)", "details": "for [Total cholesterol] % Mean % variation vs baseline 10 days: 200 mg q.d.; for [Total cholesterol] levels: Study 3", "method": "Randomized, double-blind, placebo-controlled study for the assessment of safety, tolerability, pharmacokinetics, and pharmacodynamics, of multiple oral doses of Compound 1 (dosed as a [Compound 1:HCl:3H2O]) in Japanese and Caucasian healthy subjects.\nRandomized, double-blind, placebo-controlled, single center, sequential design study.\nCompound 1 (dosed as a [Compound 1:HCl:3H2O]) is administered for 10 days as oral film-coated tablet (25 and 100 mg and matching placebos). Placebo are provided as a matching tablet.\nThe study drug is ingested with 240 mL water after a standardized breakfast on Days 2-9. On PK days (Day 1 and Day 10) the study drug is administered in a fasted state (subjects will receive lunch 4 h after dosing on Day 1 and Day 10).\n10 Japanese subjects (6 active, 4 placebo) and 10 Caucasian subjects (6 active, 4 placebo) will receive once daily an oral dose of 200 mg Compound 1 (dosed as a [Compound 1:HCl:3H2O]) or matching placebo as two tablets of 100 mg or matching placebo for 10 days. For practical reasons, these subjects may be split over separate groups, each group consisting of an equal number of Japanese and Caucasian Compound 1 (dosed as a [Compound 1:HCl:3H2O]) treated subjects and Japanese and Caucasian placebo subjects.\nThis method is based on the determination of Δ^4 cholestenone after enzymatic cleavage of the cholesterol ester by cholesterol esterase, conversion of cholesterol by cholesterol oxidase, and subsequent measurement by the Trinder reaction of the hydrogen peroxide formed (Allain et al., 1974).\nCholesterol esters are cleaved by the action of cholesterol esterase to yield free cholesterol and fatty acids. Cholesterol oxidase then catalyzes the oxidation of cholesterol to cholest-4-en-3-one and hydrogen peroxide. In the presence of peroxidase, the hydrogen peroxide formed effects the oxidative coupling of phenol and 4-aminophenazone to form a red quinone-imine dye. The color intensity of the dye formed is directly proportional to the cholesterol concentration. It is determined by measuring the increase in absorbance.\nHuman serum and plasma samples cholesterol determination was done on a Roche/Hitachi Cobas c 701/702 system which automatically calculate the analyte concentration of each sample."}, "RA patients [3]": {"system": "RA patients", "test": "Plasma Serum Amyloid A (SAA) concentration (ELISA), Study 4", "details": "for SAA level, 4 weeks CFB: 4 weeks change from baseline", "method": "as §1, §2\nPlasma SAA concentration was determined using a commercial available Novex ELISA kit from Life technologies (Bleiswijk, The Netherlands) according to manufacturer's instruction. Catalogue number KHA0011, lot number used: 1433688A."}},
  "data": [
    {"smiles": "O=C(Nc1nc2cccc(-c3ccc(CN4CCS(=O)(=O)CC4)cc3)n2n1)C1CC1", "note": "[Compound 1, cyclopropanecarboxylic acid {5-[4-(1,1-dioxo-thiomorpholin-4-ylmethyl)-phenyl]-[1,2,4]triazolo[1,5-a]pyridin-2yl}-amide]", "values": [
      {"measurement": "PON1 level, 4 weeks CFB", "setting": "RA patients [1]; 30 mg q.d.", "value": 4.2, "unit": "%"},
      {"measurement": "PON1 level, 4 weeks CFB", "setting": "RA patients [1]; 75 mg q.d.", "value": 11.2, "unit": "%"},
      {"measurement": "PON1 level, Baseline", "setting": "RA patients [1]; 75 mg q.d.", "value": 69.3, "unit": "ng/mL"},
      {"measurement": "PON1 level, week 4", "setting": "RA patients [1]; 75 mg q.d.", "value": 73.7, "unit": "ng/mL"},
      {"measurement": "PON1 level, 4 weeks CFB", "setting": "RA patients [1]; 150 mg q.d.", "value": 43.4, "unit": "%"},
      {"measurement": "PON1 level, Baseline", "setting": "RA patients [1]; 150 mg q.d.", "value": 52.5, "unit": "ng/mL"},
      {"measurement": "PON1 level, week 4", "setting": "RA patients [1]; 150 mg q.d.", "value": 70.6, "unit": "ng/mL"},
      {"measurement": "PON1 level, 4 weeks CFB", "setting": "RA patients [1]; 300 mg q.d.", "value": 31.0, "unit": "%"},
      {"measurement": "PON1 level, week 4", "setting": "RA patients [1]; 300 mg q.d.", "value": 77.5, "unit": "ng/mL"},
      {"measurement": "[Total cholesterol] % Mean % variation vs baseline 10 days", "setting": "[2]; Caucasian", "value": "−2.6", "unit": "%"},
      {"measurement": "[Total cholesterol] % Mean % variation vs baseline 10 days", "setting": "[2]; Japanese", "value": "−0.4", "unit": "%"},
      {"measurement": "[Total cholesterol] levels", "setting": "[2]; Caucasian 200 mg q.d. for 10 days, day 17", "value": 4.57, "unit": "mmol/L"},
      {"measurement": "[Total cholesterol] levels", "setting": "[2]; Caucasian 200 mg q.d., day 0", "value": 4.77, "unit": "mmol/L"},
      {"measurement": "[Total cholesterol] levels", "setting": "[2]; Caucasian 200 mg q.d., day 5", "value": 4.5, "unit": "mmol/L"},
      {"measurement": "[Total cholesterol] levels", "setting": "[2]; Caucasian 200 mg q.d., day 10", "value": 4.53, "unit": "mmol/L"},
      {"measurement": "[Total cholesterol] levels", "setting": "[2]; Japanese 200 mg q.d. for 10 days, day 17", "value": 4.52, "unit": "mmol/L"},
      {"measurement": "[Total cholesterol] levels", "setting": "[2]; Japanese 200 mg q.d., day 0", "value": 4.47, "unit": "mmol/L"},
      {"measurement": "[Total cholesterol] levels", "setting": "[2]; Japanese 200 mg q.d., day 5", "value": 4.18, "unit": "mmol/L"},
      {"measurement": "[Total cholesterol] levels", "setting": "[2]; Japanese 200 mg q.d., day 10", "value": 4.45, "unit": "mmol/L"},
      {"measurement": "SAA level, 4 weeks CFB", "setting": "RA patients [3]; 30 mg q.d.", "value": "−15.4", "unit": "%"},
      {"measurement": "SAA level, Baseline", "setting": "RA patients [3]; 30 mg q.d.", "value": 935.4, "unit": "ng/mL"},
      {"measurement": "SAA level, week 4", "setting": "RA patients [3]; 30 mg q.d.", "value": 436.2, "unit": "ng/mL"},
      {"measurement": "SAA level, 4 weeks CFB", "setting": "RA patients [3]; 75 mg q.d.", "value": "−13.5", "unit": "%"},
      {"measurement": "SAA level, Baseline", "setting": "RA patients [3]; 75 mg q.d.", "value": 883.7, "unit": "ng/mL"},
      {"measurement": "SAA level, week 4", "setting": "RA patients [3]; 75 mg q.d.", "value": 201.3, "unit": "ng/mL"},
      {"measurement": "SAA level, 4 weeks CFB", "setting": "RA patients [3]; 150 mg q.d.", "value": "−56.7", "unit": "%"},
      {"measurement": "SAA level, Baseline", "setting": "RA patients [3]; 150 mg q.d.", "value": 621.3, "unit": "ng/mL"},
      {"measurement": "SAA level, week 4", "setting": "RA patients [3]; 150 mg q.d.", "value": 388.5, "unit": "ng/mL"},
      {"measurement": "SAA level, 4 weeks CFB", "setting": "RA patients [3]; 300 mg q.d.", "value": "−62.0", "unit": "%"},
      {"measurement": "SAA level, Baseline", "setting": "RA patients [3]; 300 mg q.d.", "value": 555.6, "unit": "ng/mL"},
      {"measurement": "SAA level, week 4", "setting": "RA patients [3]; 300 mg q.d.", "value": 43.2, "unit": "ng/mL"}
    ]}
  ]
}
